{"source": "paper PMC11679793", "about": "“Structure-Activity Relationship Study of Majusculamide D: Overcoming Metabolic Instability and Severe Toxicity with a Fluoro Analogue” (Marine Drugs, 2024)", "key": {"PANC-1 xenograft tumor": {"tested_on": "PANC-1 xenograft tumor", "description": "Furthermore, a xenografted murine subcutaneous tumor model was employed to evaluate the effects of majusculamide D and the optimized analogues 1c and 1n (Figure 1B). PANC1-bearing BALB/c nude mice were separated randomly, with a total of six mice in each group. Gemcitabine was chosen as the positive drug; the mice were then administered intravenous doses of 1c (5 mg/kg), 1n (5 mg/kg), 1a (5 mg/kg), and gemcitabine (20 mg/kg) every other day for 24 days.\nA total of 4 × 10^6 PANC-1 cells suspended in 100 μL PBS were subcutaneously injected into the right shoulder region of BALB/c nude mice. When the tumor volume reached approximately 200 mm^3, the mice were euthanized, and the tumor tissues were harvested and designated as F1 generation. Tumor tissues were then cut into small cubes measuring approximately 3 × 3 × 3 mm, which were implanted into new BALB/c mice to propagate the tumors. This procedure was repeated to obtain the F2 generation of tumors. Finally, mice bearing F3 generation transplant tumors were used for drug treatment experiments. When the tumor volume reached approximately 80–100 mm^3, the mice were randomly divided into five groups (n = 6): control group, 5 mg/kg compound 1a group, 5 mg/kg compound 1c group, 5 mg/kg compound 1n group, and 20 mg/kg gemcitabine group. The compounds 1a, 1c, and 1n were dissolved in DMSO and then diluted with 0.9% physiological saline to achieve a final concentration of 0.5 mg/mL as the dosing concentration. Gemcitabine was dissolved directly in 0.9% saline to achieve a final concentration of 2 mg/mL as the dosing concentration. The compounds were administered intravenously every two days, alternating between the left and right tail veins to minimize vein damage. Injections were performed using ultra-fine syringes (30G needles) to reduce stress and ensure consistent delivery. The body weight and tumor volume of the mice were measured every four days. On day 24, the mice were euthanized, and the tumor weights were recorded. Tumor volume (V) was calculated using the formula: V = (ab^2)/2, with “a” representing the long diameter of the tumor and “b” representing the short diameter of the tumor. […] Tumor weight was used to calculate the tumor inhibition rate (Figure 1G)."}, "pancreatic cancer cells": {"tested_on": "pancreatic cancer cells", "assay": "EdU assay", "type": "cell-based", "settings": "48 h treatment, concentration-dependent, vs control", "description": "The EdU ([…]) assay is a well-established method that assesses cell proliferation activity by detecting DNA synthesis. The results of EdU assays indicated […]\nconcentration-dependent manner. […]\nthe DNA synthesis of pancreatic cancer cells, thereby inhibiting the proliferation of pancreatic cancer cells, which was consistent with the results of clone formation assays. […]\nSnail and TCF8/ZEB1 both […]\nare transcription factors that can inhibit the expression of E-cadherin and promote the EMT process. Vimentin is a marker protein of mesenchymal cells, and its expression increases during EMT, further contribute to the process of metastasis by supporting the structural changes needed for cell migration and invasion.\nWe examined the effects of compound 1a on above key proteins involved in tumor progression pathways employing Western blot analysis in PANC-1 cells and MIA PaCa-2 […]\n1a might inhibit cancer cell invasion and migration by enhancing cell-cell adhesion and barrier function. Conversely, the expression levels of β-catenin, Fibronectin, Snail, […]\nCells were resuspended at a concentration of 300 cells/mL, and 2 mL of the suspension was added to each well of a 6-well plate. […] The colonies were imaged under a microscope and quantified using ImageJ. […]"}, "[1]": {"assay": "Serum biochemical analysis and H&E histology of liver and kidney", "type": "in vivo, mice", "settings": "5 mg/kg every other day, 14 days", "description": "In the biochemical and histological assays, 1n (5 mg/kg) and 1a (5 mg/kg) were administered to mice every other day, with the control group receiving an equivalent dose of saline. Following 14 days, mouse serum was collected for biochemical analysis, and organs were fixed for histological examination. […] In comparison, the liver tissues of the 1n-treated and control groups were normal.\nMice were euthanized, and liver and kidney tissues were collected and fixed in 10% neutral-buffered formalin for 48 h. The fixed tissues were processed for paraffin embedding, including dehydration in a graded ethanol series, clearing with xylene, and infiltration with molten paraffin wax. Paraffin blocks were sectioned into 4 μm slices using a rotary microtome, and the sections were mounted onto glass slides. The slides were dried at 60 °C for 4 h to ensure proper tissue adhesion. Following deparaffinization and rehydration, staining was performed according to the manufacturer’s instructions for the H&E staining kit (Solarbio, China). The sections were immersed in a hematoxylin solution for 3 min to stain the nuclei and then rinsed under running tap water for 1 minute to remove excess stain. Differentiation was achieved by briefly immersing the slides in a 1% hydrochloric acid-ethanol solution, followed by neutralization in 0.6% ammonia water until the nuclei appeared blue. Eosin staining was applied for 30 s to stain cytoplasmic and extracellular components, imparting a pink coloration. The slides were rinsed under running tap water for 30 s to remove excess eosin. Finally, the sections were dehydrated through a graded ethanol series, cleared with xylene, and coverslipped with a neutral resin mounting medium to preserve the stained tissues for microscopic examination."}}}
{"compound": "CCCCC(C)CC(C)C(=O)N(C)C(Cc1ccc(OC)cc1)C(=O)NC(C(=O)N(C)C(C(=O)N1CC(O)CC1C(=O)N1C(=O)C=CC1C)C(C)C)C(C)OC(C)=O", "note": "(stereo not drawn) [Compound 1a, Majusculamide D]", "values": [{"measurement": "mortality rate among the mice", "setting": "PANC-1 xenograft tumor; 5 mg/kg i.v. every other day, 24 days, n = 6", "value": 50, "unit": "%"}, {"measurement": "mice dead in treated group", "setting": "PANC-1 xenograft tumor; 5 mg/kg i.v., xenografted mouse model, six mice per group", "value": 3, "unit": "mice"}, {"measurement": "tumor inhibition rate (%)", "setting": "PANC-1 xenograft tumor; calculated from tumor weight, day 24, 1a, 1c, 1n 5 mg/kg, gemcitabine 20 mg/kg i.v.", "value": 64.8, "unit": "%"}, {"measurement": "tumor weight", "setting": "PANC-1 xenograft tumor; day 24, i.v. every other day, 1a, 1n 5 mg/kg, gemcitabine 20 mg/kg, mean ± SD", "value": "0.393 ± 0.049", "unit": "g"}, {"measurement": "tumor volume", "setting": "PANC-1 xenograft tumor; i.v. every other day for 24 days, 1a, 1n 5 mg/kg, gemcitabine 20 mg/kg, mean ± SD, n = 6", "value": "353.0 ± 66.7", "unit": "mm^3"}, {"measurement": "cell proliferation ability (EdU, DNA synthesis)", "setting": "pancreatic cancer cells", "value": "decreased in comparison to the control group"}, {"measurement": "kidney tissue H&E histology", "setting": "[1]", "value": "no significant pathological differences"}, {"measurement": "liver tissue H&E histology", "setting": "[1]", "value": "signs of hepatocyte necrosis and disruption of the hepatic cord structure"}, {"measurement": "serum ALT and AST levels compared to the control group", "setting": "[1]; n = 3", "value": "substantially elevated"}]}
